Entries after “also recorded” stand apart in the source; their conditions may differ.
Tests used:
Format in all cases: cell-based
[1] = tested on: Lin28b protein expression in DuNE cells; experiment: Lin28b protein levels by immunoblotting in DuNE cells; conditions: 20uM, 72 h
Procedure: We further tested whether the 13 candidate compounds could penetrate the cell membrane, endure cell-mediated metabolism and excretion, and inhibit Lin28 activities inside cancer cells. […] Since let-7 and Lin28b mutually regulate each other’s expression, increased let-7 expression by Lin28 inhibitors would suppress Lin28b protein levels.
Fig. 3 Validate CADD predicted compounds by cell-based assays. A, B DuNE cells were treated with Lin28b inhibitors for 72 h. Let-7d RNA levels were measured by real-time qPCR (A) and Lin28b protein levels were measured by immunoblotting (B). […] Cell proliferation rates were measured by Incucyte. D Overlay of 1H-15N HSQC spectra for Lin28b-ZKD (black), Lin28b-ZKD + Ln15 (orange), and Lin28b-ZKD + Ln268 (blue). Ligands were added in a 20:1 molar ratio. Approximately 20 residues are seen to shift (from black to orange/blue), with ca. 5 resonances disappearing for Lin28b-ZKD in the presence of Ln268. E Overlay of the 20 NMR models for 2CQF (gray) and 2LI8 (blue) showing the rearrangement of residues 137–160 in going from Lin28b-ZKD alone to the conformation with RNA present. The conformation of Lin28b-ZKD in the presence of the ligands described herein might resemble that of 2LI8, but with a larger conformational spread. All results are presented as the mean ± SD.
Total RNA was extracted by TRIZOL reagent (Invitrogen), treated with deoxyribonuclease and reversely transcribed by random hexamers and superscript II (Invitrogen). Real-time qPCR was performed on the ABI PRISM 7900 HT system (Applied Biosystems) using the FastStart Universal SYBR Green Master mix (Roche) following standard protocol as we reported. All real-time qPCR assays were carried out in triplicates from three independent cDNA syntheses. For immunoblotting assays, whole cell lysis was extracted by a buffer containing 50mM of Tris pH8.0, 150mM of NaCl, 1% NP40, 0.5% sodium deoxycholate, 0.1% SDS and proteinase and phosphatase inhibitors (Roche). Protein lysis separated by SDS-PAGE, transferred to polyvinylidene difluoride membrane, and blotted by specific antibodies.

[2] = tested on: Lin28a-positive IGROV-1 cells; experiment: Cell proliferation (Incucyte), IGROV-1 cells
DuNE cells [3] = experiment: Colony formation assay, DuNE cells; conditions: 14 days, vs vehicle (~50 colonies)
Text: CSCs have characteristic tumorigenic, self-renewal, and differentiation properties. The self-renewal ability is hijacked by CSCs that makes them both tumorigenic and capable of sustaining long-term tumor growth, which can be evaluated by 3D spheroid and colony formation assays. We established a DuNE spheroid model in which DuNE cells formed 3D spheroids in 96-well plates (Figure S3). By integrating this 3D culture with the Incucyte live-cell imaging system, we quantified the sizes of the spheroid growth over 0–6 days to generate a spheroid growth curve. Using this model system, we treated the DuNE spheroids with increasing doses (0–100 μM) of C1632, Ln15, and Ln268 for 0–6 days. […] In addition, classic colony formation assays were used to measure the stemness in the DuNE model. Colony formation counts, which were ~50 under vehicle treatment after 14 days, decreased by 22% in C1632-treated plates, and by 75% and 96% in the Ln15 and Ln268 treated plates, respectively (Fig. 4D).
In the colony formation assays, cancer cells were seeded in 0.7% soft agar in a 6-well plate, with a 1% soft agar bottom base coating. Cells were allowed to grow for 14 days to form colonies. Colonies were stained with crystal violet and imaged by stitching 5X field images together to capture the entire well (Zeiss light microscope [Carl Zeiss]). Colony numbers were counted according to their diameters (100-300um or >300um). Three independent biological replicates were performed for all the assays.

[4] = tested on: Du145 (Lin28b-negative line); experiment: Cell proliferation (Incucyte), Du145 cells
Text: (§1) To further evaluate whether the suppressive effects of Ln268 are specific to Lin28-positive cancer cells, we compared cell growth rates of DuNE (Lin28b-positive line) and Du145 (Lin28b-negative line), both of which are Lin28a-negative. DuNE has the same genomic background with Du145 except for the transduction of the SRRM4 gene. […] Furthermore, Ln268 had no impact on the cell growth of DuNE(KO) cells, in which the Lin28b gene was knocked out by CRISPR (Fig. 5C). […] We also tested several ovarian and endometrial cancer cell lines with different Lin28a and Lin28b expression profiles (Fig. 5E).

[5] = tested on: DuNE(KO) cells (Lin28b gene knocked out by CRISPR); experiment: Cell proliferation, DuNE(KO) cells; conditions: Lin28b knockout, 72 h
Text: as §1

ANA3CA cells = experiment: Cell proliferation (Incucyte), ANA3CA; conditions: Lin28a/Lin28b-positive
Text: as §1

HEC50 cells = experiment: Cell proliferation (Incucyte), HEC50; conditions: Lin28a/Lin28b-negative
Text: as §1

[6] = tested on: Lin28b, let-7 target, CSC and NE biomarker genes in DuNE cells; experiment: Gene expression (real-time qPCR, immunoblotting) in DuNE cells; conditions: 72 h
Procedure: Fig. 4 Ln268 strongly blocks cancer cell stemness of t-NEPC cells. A, B DuNE cells were treated with C1632, Ln15, and Ln268 for 72 h. Selected Let-7 targeted genes, stem cell biomarkers and NE biomarkers were measured by real-time qPCR (A). Lin28b and its downstream HMGA2 protein levels were measured by immunoblotting (B). C DuNE spheroids were treated with 0–100 μM of C1632, Ln15, and Ln268 for 0–6 days. Spheroid sizes were measured and plotted. D DuNE cells were used to perform colony formation assays in the presence of C1632, Ln15 and Ln268 for 14 days. The number of colonies formed in each treatment counted and plotted. E DuNE cells under 3D culture conditions were treated with C1632, Ln15, and Ln268 at the indicated concentrations. Cell growth rates were measured by Incucyte. F DuNE cells were treated with 0–20 μM Ln268 for 144 h. FACS measured cell populations at each stage of cell cycling. Three independent biological replicates were performed for all the assays. All results are presented as the mean ± SD.
Total RNA was extracted by TRIZOL reagent (Invitrogen), treated with deoxyribonuclease and reversely transcribed by random hexamers and superscript II (Invitrogen). Real-time qPCR was performed on the ABI PRISM 7900 HT system (Applied Biosystems) using the FastStart Universal SYBR Green Master mix (Roche) following standard protocol as we reported. […]

DuNE cells [7] = experiment: Cell cycle analysis by FACS, DuNE cells; conditions: 0-20 μM, 144 h
Text: To further compare the potency of Ln268 with C1632 and Ln15 in suppressing DuNE cell growth, we also measured cell growth rates under […] conditions (Fig. 4E). […] In addition, we used FACS assays to confirm that Ln268-mediated cell growth inhibition was due to its effects on blocking cancer cell cycling from the G1 phase towards the S and M phases (Fig. 4F). […] In summary, we confirmed that Ln268 is a potent Lin28 inhibitor that blocks the CSC phenotype of cancer cells, suppresses formation of 3D colonies, and inhibits cancer cell proliferation.

O=c1[nH]c(Nc2ccc(F)cc2O)cs1 [Ln268]
effect on Lin28b protein expression [1]: suppressed Lin28b protein expression | cell proliferation, IGROV-1 [2]: strongly inhibited cell proliferation; also recorded: strong suppressive effects | decrease of colony formation counts (DuNE cells [3]): 96% | effect on Du145 cell growth and cell morphology [4]: no impact | effect on cell growth of DuNE(KO) cells [5]: no impact | effect on growth of ANA3CA cells (ANA3CA cells): suppressed the growth | effect on growth of HEC50 cells (HEC50 cells): no or minimal impacts | effect on Lin28b mRNA and protein levels [6]: potently inhibited Lin28b at both mRNA and protein levels | inhibition of Oct4, Nanog and ID4 expression relative to C1632 ([6]; qPCR): stronger inhibitory effects than C1632 | cell cycle effect (FACS) (DuNE cells [7]): arrested in G2/M in a dose-dependent manner

From article PMC11725581, “Developing novel Lin28 inhibitors by computer aided drug design” (Cell Death Discovery, 2025)
